“And” between values parts separate entries of the source, which are not always exact repeats. Equal values may be shown once. Read-outs that look alike come from different tables or passages of the source.
Legend:
[1] = TED14856 Part A: plasma pharmacokinetics of compound (1); type: in vivo, human; settings: for Tmax / Vd/F / AUC(0-t) / Cmax: human, plasma, oral, 600 mg; for Tmax: read-out: tmax (median)
[2] = tested on: ER-positive and HER2-negative advanced breast cancer; experiment: TED14856 Part A: antitumor activity per RECIST v1.1 (BOR, ORR, CBR)
From the text: The signal extinction between baseline and on study treatment ^18FES-PET scans constitute the PD readout of the ER engagement.
Patients with an early progression as per RECIST v1.1 or who died from disease progression are evaluable for response.
Preliminary efficacy is descriptively presented on activity/efficacy population.

[3] = repeated 600 mg once daily, Cycle1 Day 22, fasted, N=3
[4] = repeated 20 mg once daily, Cycle1 Day 22, fasted, N=3
[5] = repeated 150 mg once daily, Cycle1 Day 22, fasted, N=2
[6] = repeated 200 mg once daily, Cycle1 Day 22, fasted, N=3
[7] = repeated 400 mg once daily, Cycle1 Day 22, fasted, N=3
[8] = single 20 mg, Cycle1 Day 1, fasted, N = 1
[9] = single 150 mg, Cycle1 Day 1, fasted, N = 1
[10] = single 200 mg, Cycle1 Day 1, fasted, N=4
[11] = single 400 mg, Cycle1 Day 1, fasted, N=3
[12] = single 600 mg, Cycle1 Day 1, fasted, N = 2

SMILES: O=C(O)c1ccc2c(c1)CCCC(c1ccc(Cl)cc1Cl)=C2c1ccc(O[C@H]2CCN(CCCF)C2)cc1 [compound (1), 6-(2,4-dichlorophenyl)-5-[4-[(3S)-1-(3-fluoropropyl)pyrrolidin-3-yl]oxyphenyl]-8,9-dihydro-7H-benzo[7]annulene-2-carboxylic acid]
- Tmax [1, 3]: 3 h
- Vd/F ([1]; single 600 mg, Cycle1 Day 1, fasted, N = 2, read-out: Vss/F (Geometric Mean)): 132 L
- Vd/F ([1]; single 600 mg, Cycle1 Day 1, fasted, N = 2, read-out: Vss/F (Mean ± SD)): 137 L
- AUC(0-t) ([1]; single 600 mg, Cycle1 Day 1, fasted, N=3, read-out: AUC0-24 (Geometric Mean)): 53400 ng·h/mL
- AUC(0-t) ([1]; single 600 mg, Cycle1 Day 1, fasted, N=3, read-out: AUC0-24 (Mean ± SD)): 61100 ± 36300 ng·h/mL
- Cmax ([1]; single 600 mg, Cycle1 Day 1, fasted, N=3, read-out: Cmax (Geometric Mean)): 6160 ng/mL
- Cmax ([1]; single 600 mg, Cycle1 Day 1, fasted, N=3, read-out: Cmax (Mean ± SD)): 7010 ± 4180 ng/mL
- Tmax ([1]; single 600 mg, Cycle1 Day 1, fasted, N=3): 3.03 h
- accumulation on Day 21/22 ([1]; once-daily administrations up to 200 mg): moderate accumulation
- accumulation on Day 21/22 ([1]; once-daily, doses higher than 200 mg): no accumulation
- CLss/F (Mean ± SD) [1, 4]: 18.0 ± 13.7 L/h
- Ctrough (Mean ± SD) [1, 4]: 8.10 ± 7.16 ng/mL
- CLss/F (Mean ± SD) [1, 5]: 10.6 NC L/hr
- Ctrough (Geometric Mean) [1, 5]: (115) [NC] ng/mL
- Ctrough (Mean ± SD) [1, 5]: 126 NC ng/mL
- CLss/F (Mean ± SD) [1, 6]: 15.3 ± 4.30 L/h
- Ctrough (Geometric Mean) [1, 6]: (59.2) [73.6] ng/mL
- Ctrough (Mean ± SD) [1, 6]: 76.1 ± 56.0 ng/mL
- CLss/F (Mean ± SD) [1, 7]: 18.1 ± 17.4 L/h
- Ctrough (Geometric Mean) [1, 7]: (253) [84.2] ng/mL
- Ctrough (Mean ± SD) [1, 7]: 388 ng/mL and 388 ± 327 ng/mL
- CLss/F (Mean ± SD) [1, 3]: 14.7 ± 3.96 L/h
- Ctrough (Geometric Mean) [1, 3]: (314) [56.8] ng/mL
- Ctrough (Mean ± SD) [1, 3]: 348 ± 197 ng/mL
- CL/F (Mean ± SD) [1, 8]: 12.2 NC L/hr
- t1/2z (Geometric Mean) [1, 8]: (4.86) [NC]^b hr
- t1/2z (Mean ± SD) [1, 8]: 4.86 NC hr
- CL/F (Mean ± SD) [1, 9]: 7.26 NC L/hr
- t1/2z (Geometric Mean) [1, 9]: (6.42) [NC]^b hr
- t1/2z (Mean ± SD) [1, 9]: 6.42 NC hr
- CL/F (Mean ± SD) [1, 10]: 24.2 ± 17.0 L/h
- t1/2z (Geometric Mean) [1, 10]: (7.31) [19.5] hr
- t1/2z (Mean ± SD) [1, 10]: 7.41 ± 1.45 h
- CL/F (Mean ± SD) [1, 11]: 9.86 ± 5.77 L/h
- t1/2z (Mean ± SD) [1, 11]: 10.6 ± 2.33 h
- CL/F (Mean ± SD) [1, 12]: 15.2 NC L/hr
- t1/2z (Geometric Mean) [1, 12]: (8.97) [NC]^c hr
- t1/2z (Mean ± SD) [1, 12]: 9.45 NC hr
- accumulation after repeated oral administration ([1]; up to 600 mg): limited accumulation
- dose proportionality of exposure (Cmax, AUC0-24h) ([1]; up to 600 mg, single or multiple once daily administrations): did not deviate significantly from dose proportionality
- Clinical Benefit Rate ([2]; 20 mg, N=3): 0 n
- Complete Response (CR) ([2]; 20 mg, N=3): 0 n
- Objective Response Rate ([2]; 20 mg, N=3): 0 n
- Partial Response (PR) ([2]; 20 mg, N=3): 0 n
- Complete Response (CR) ([2]; 150 mg, N=3): 0 n
- Complete Response (CR) ([2]; 200 mg, N=4): 0 n
- Objective Response Rate ([2]; 200 mg, N=4): 0 n
- Partial Response (PR) ([2]; 200 mg, N=4): 0 n
- Complete Response (CR) ([2]; 400 mg, N=3): 0 n
- Objective Response Rate ([2]; 400 mg, N=3): 0 n
- Partial Response (PR) ([2]; 400 mg, N=3): 0 n
- Complete Response (CR) ([2]; 600 mg, N=3): 0 n
- Objective Response Rate ([2]; 600 mg, N=3): 0 n
- Partial Response (PR) ([2]; 600 mg, N=3): 0 n
- Complete Response (CR) ([2]; All, N=16): 0 n
- patients with tumor shrinkage greater than 10% ([2]; N=16): 9 patients
- Clinical Benefit Rate (CBR) ([2]; patients with ESR1 mutations (5/11)): 45.5%
- Clinical Benefit Rate (CBR) ([2]; patients with wild-type ESR1 (3/5)): 60.0%
